Laboratory results reported in article PMC7007966 (Journal of medicinal chemistry, 2019).
Entries after “also recorded” stand apart in the source; their conditions may differ.

Columns and labels:
[1] = target: T1, rat DOR (C6-DOR membranes) (Rattus norvegicus, UniProt P33533); assay: [35S]-GTPγS binding assay; assay type: biochemical; conditions: for DOR efficacy (in words): [35S]-GTPγS stimulation relative to DPDPE at 10 μM
[2] = target: T2, rat MOR (C6-MOR membranes) (Rattus norvegicus, UniProt P33535); assay: [35S]-GTPγS binding assay; assay type: biochemical; conditions: [35S]-GTPγS stimulation relative to DAMGO
[3] = target: T3, human KOR (CHO-KOR membranes) (Homo sapiens, UniProt P41145); assay: Radioligand competition binding, [3H]-diprenorphine displacement; conditions: competitive displacement of [3H]-diprenorphine, membrane preparations
[4] = target: T3, human KOR (CHO-KOR membranes); assay: [35S]-GTPγS binding assay; assay type: biochemical; conditions: [35S]-GTPγS stimulation relative to U69,593 at 10 μM
[5] = target: T1, rat DOR (C6-DOR membranes); conditions: [35S]-GTPγS stimulation relative to DPDPE; cited from earlier work
[6] = target: T2, rat MOR (C6-MOR membranes); assay: Radioligand competition binding, [3H]-diprenorphine displacement; conditions: ratio of binding affinities; 1A-D, 2B, 2D previously reported compounds

Row | Compound | DOR efficacy (in words) [1] | MOR efficacy (in words) [2] | other results
1 | Cc1cc(O)cc(C)c1C[C@H](N)C(=O)N[C@@H]1CCN(C(=O)C2CC2)c2ccc(Cc3ccccc3)cc21.O=C(O)C(F)(F)F [Compound 3A] | significant efficacy at DOR |  | 
2 | Cc1cc(O)cc(C)c1C[C@H](N)C(=O)N[C@@H]1CCN(C(=O)C2CC2)c2ccc(Cc3cc4ccccc4o3)cc21.O=C(O)C(F)(F)F [Compound 3F] | significant efficacy at DOR; also recorded: DOR partial agonists | MOR agonists | 
3 | Cc1cc(O)cc(C)c1C[C@H](N)C(=O)N[C@@H]1CCN(C(=O)C2CC2)c2ccc(Cc3cnc4ccccc4c3)cc21.O=C(O)C(F)(F)F [Compound 3C] | significant efficacy at DOR |  | DOR agonist potency (in words) ([1]; [35S]-GTPγS stimulation): subnanomolar
4 | CC(=O)N1CC[C@@H](NC(=O)[C@@H](N)Cc2c(C)cc(O)cc2C)c2cc(CN3CCc4ccccc4C3)ccc21.O=C(O)C(F)(F)F [Compound 2D] |  |  | KOR affinity (in words) [3]: relatively high KOR affinity; KOR efficacy (in words) [4]: relatively high KOR affinity and efficacy
5 | Cc1cc(O)cc(C)c1C[C@H](N)C(=O)N[C@@H]1CCN(S(C)(=O)=O)c2ccc(CN3CCc4ccccc4C3)cc21.O=C(O)C(F)(F)F [Compound 4D] |  |  | KOR affinity (in words) [3]: relatively high KOR affinity; KOR efficacy (in words) [4]: relatively high KOR affinity and efficacy
6 | Cc1cc(O)cc(C)c1C[C@H](N)C(=O)N[C@@H]1CCN(S(C)(=O)=O)c2ccc(Cc3cc4ccccc4o3)cc21.O=C(O)C(F)(F)F [Compound 4F] | DOR antagonists | MOR agonists | 
7 | CC(=O)N1CC[C@@H](NC(=O)[C@@H](N)Cc2c(C)cc(O)cc2C)c2cc(Cc3ccc4ccccc4c3)ccc21.O=C(O)C(F)(F)F [Compound 2B] |  |  | DOR efficacy (in words), previously reported compounds [5]: DOR antagonist profile
8 | Cc1cc(O)cc(C)c1C[C@H](N)C(=O)N[C@@H]1CCN(C(=O)c2ccccc2)c2ccc(Cc3ccc4ccccc4c3)cc21.O=C(O)C(F)(F)F [Compound 5B] |  | partial MOR efficacy | 
9 | Cc1cc(O)cc(C)c1C[C@H](N)C(=O)N[C@@H]1CCNc2ccc(Cc3cc4ccccc4o3)cc21.O=C(O)C(F)(F)F [Compound 1F] | DOR antagonists | MOR agonists | 
10 | Cc1cc(O)cc(C)c1C[C@H](N)C(=O)N[C@@H]1CCN(C(=O)c2ccccc2)c2ccc(Cc3cnc4ccccc4c3)cc21.O=C(O)C(F)(F)F [Compound 5C] |  | partial MOR efficacy | 
11 | CC(=O)N1CC[C@@H](NC(=O)[C@@H](N)Cc2c(C)cc(O)cc2C)c2cc(Cc3cc4ccccc4o3)ccc21.O=C(O)C(F)(F)F [Compound 2F] | significant efficacy at DOR; also recorded: DOR partial agonists | MOR agonists | 
12 | CC(=O)N1CC[C@@H](NC(=O)[C@@H](N)Cc2c(C)cc(O)cc2C)c2cc(Cc3cnc4ccccc4c3)ccc21.O=C(O)C(F)(F)F [Compound 2C] | significant efficacy at DOR |  | 
13 | CC(=O)N1CC[C@@H](NC(=O)[C@@H](N)Cc2c(C)cc(O)cc2C)c2cc(Cc3ccccc3)ccc21.O=C(O)C(F)(F)F [Compound 2A] |  |  | DOR efficacy (in words), previously reported compounds [5]: significant efficacy at DOR
14 | Cc1cc(O)cc(C)c1C[C@H](N)C(=O)N[C@@H]1CCN(C(=O)C2CC2)c2ccc(Cc3ccc4ccccc4c3)cc21.O=C(O)C(F)(F)F [Compound 3B] | significant efficacy at DOR |  | 
15 | Cc1cc(O)cc(C)c1C[C@H](N)C(=O)N[C@@H]1CCNc2ccc(Cc3ccc4ccccc4c3)cc21.O=C(O)C(F)(F)F [Compound 1B] |  |  | selectivity for MOR over DOR (DOR Ki/MOR Ki) [6]: 100 fold
16 | Cc1cc(O)cc(C)c1C[C@H](N)C(=O)N[C@@H]1CCN(S(C)(=O)=O)c2ccc(Cc3ccccc3)cc21.O=C(O)C(F)(F)F [Compound 4A] | partial DOR agonism |  | 
17 | Cc1cc(O)cc(C)c1C[C@H](N)C(=O)N[C@@H]1CCN(C(=O)c2ccccc2)c2ccc(Cc3ccc4c(c3)OCCO4)cc21.O=C(O)C(F)(F)F [Compound 5E] |  | no significant MOR efficacy | 
18 | Cc1cc(O)cc(C)c1C[C@H](N)C(=O)N[C@@H]1CCNc2ccc(Cc3ccccc3)cc21.O=C(O)C(F)(F)F [Compound 1A] |  |  | DOR efficacy (in words), previously reported compounds [5]: low DOR agonist activity
19 | Cc1cc(O)cc(C)c1C[C@H](N)C(=O)N[C@@H]1CCN(C(=O)c2ccccc2)c2ccc(Cc3cc4ccccc4o3)cc21.O=C(O)C(F)(F)F [Compound 5F] | DOR antagonist | MOR partial agonist | 
